Reference: ChEMBL document CHEMBL5113419
The source made the active and inactive calls. The rule behind the calls is not given here.

What was measured:
[1] = system: MDCK-II; experiment: Cytotoxicity against MDCK-II cells assessed as reduction in cell viability at 50 uM measured for 24 hrs by Celltiter-glo luminescent assay; format: toxicity, cell-based, Canis lupus familiaris; settings: dog
[2] = system: Influenza A virus; experiment: Antiviral activity against Influenza A virus H9N2 infected in MDCK-II cells assessed as reduction in comet-shaped foci at 20 uM measured after 24 hrs by immunostaining based assay; format: functional, organism-based
[3] = biological target: Prothrombin (Bos taurus, UniProt P00735); experiment: Binding affinity to bovine thrombin assessed as inhibition constant using tosyl-Gly-Pro-Arg-AMC as substrate
[4] = (§1) Selectivity ratio of Ki for binding affinity to bovine thrombin assessed as inhibition constant using tosyl-Gly-Pro-Arg-AMC as substrate to Ki for binding affinity to N-terminal MRGS(His)6GSDDDDK-tagged Matriptase (unknown origin) expressed in Escherichia coli assessed as inhibition constant using Mes-DArg-Pro-Arg-AMC as substrate; settings: Homo sapiens
[5] = system: Influenza A virus; experiment: Antiviral activity against Influenza A virus H9N2 infected in MDCK-II cells assessed as reduction in comet-shaped foci at 50 uM measured after 24 hrs by immunostaining based assay; format: functional, organism-based
[6] = biological target: T1, Suppressor of tumorigenicity 14 protein (Homo sapiens, UniProt Q9Y5Y6); experiment: Binding affinity to N-terminal MRGS(His)6GSDDDDK-tagged Matriptase (unknown origin) expressed in Escherichia coli assessed as inhibition constant using Mes-DArg-Pro-Arg-AMC as substrate
T1 sequence (Q9Y5Y6 whole entry): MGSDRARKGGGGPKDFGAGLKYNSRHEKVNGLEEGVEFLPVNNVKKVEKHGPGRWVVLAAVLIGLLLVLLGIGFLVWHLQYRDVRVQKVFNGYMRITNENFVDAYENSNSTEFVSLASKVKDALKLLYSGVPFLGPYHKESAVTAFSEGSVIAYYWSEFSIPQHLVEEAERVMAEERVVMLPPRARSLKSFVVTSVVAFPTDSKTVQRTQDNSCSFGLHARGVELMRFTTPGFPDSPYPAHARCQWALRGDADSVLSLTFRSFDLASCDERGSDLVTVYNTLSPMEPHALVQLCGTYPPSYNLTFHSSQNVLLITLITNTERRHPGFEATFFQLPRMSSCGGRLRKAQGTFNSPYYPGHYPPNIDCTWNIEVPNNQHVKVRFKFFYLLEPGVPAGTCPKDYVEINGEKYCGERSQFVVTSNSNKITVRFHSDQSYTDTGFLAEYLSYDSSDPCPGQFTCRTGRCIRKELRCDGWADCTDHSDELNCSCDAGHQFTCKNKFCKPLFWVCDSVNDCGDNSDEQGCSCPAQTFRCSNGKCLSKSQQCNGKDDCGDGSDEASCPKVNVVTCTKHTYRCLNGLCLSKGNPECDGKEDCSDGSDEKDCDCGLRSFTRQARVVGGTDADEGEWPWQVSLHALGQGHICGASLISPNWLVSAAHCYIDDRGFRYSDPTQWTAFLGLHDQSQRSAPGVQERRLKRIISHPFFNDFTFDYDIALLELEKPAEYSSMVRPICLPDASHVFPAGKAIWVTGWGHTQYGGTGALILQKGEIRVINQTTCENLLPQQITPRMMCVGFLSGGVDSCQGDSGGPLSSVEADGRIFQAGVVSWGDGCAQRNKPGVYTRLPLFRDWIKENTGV

[7] = system: Influenza A virus; experiment: Antiviral activity against Influenza A virus H9N2 infected in MDCK-II cells assessed as inhibition of viral replication measured after 24 hrs by immunostaining based assay; format: functional, organism-based; settings: DDE = dose-dependent effect
[8] = organism: Homo sapiens; experiment: as §1, with “FXa (unknown origin)” for “bovine thrombin assessed as inhibition constant”, “Mes-DArg-Pro-Arg-AMC” for “tosyl-Gly-Pro-Arg-AMC”, “origin )” for “origin)”
[9] = system: Influenza A virus; experiment: Antiviral activity against Influenza A virus H9N2 infected in MDCK-II cells assessed as reduction in viral titer in supernatants at 5 to 50 uM measured after 24 hrs by plaque assay; format: functional, organism-based; settings: dose 5-50 µM
[10] = biological target: Coagulation factor X (Homo sapiens, UniProt P00742); experiment: Binding affinity to FXa (unknown origin) using Mes-DArg-Pro-Arg-AMC as substrate
[11] = system: Influenza A virus; experiment: Antiviral activity against Influenza A virus H9N2 infected in MDCK-II cells assessed as inhibition of viral replication at 5 uM measured after 24 hrs by immunostaining based assay; format: functional, organism-based
[12] = Binding affinity to bovine trypsin assessed as inhibition constant […]; set-up: species or system Bos taurus

Coagulation factor X, sequence (P00742 41-179 limits assumed): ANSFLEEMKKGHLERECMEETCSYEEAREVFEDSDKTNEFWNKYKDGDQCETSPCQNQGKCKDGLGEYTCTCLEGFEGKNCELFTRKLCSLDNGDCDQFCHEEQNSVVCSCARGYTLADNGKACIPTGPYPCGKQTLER
Coagulation factor X, sequence (P00742 235-488 limits assumed): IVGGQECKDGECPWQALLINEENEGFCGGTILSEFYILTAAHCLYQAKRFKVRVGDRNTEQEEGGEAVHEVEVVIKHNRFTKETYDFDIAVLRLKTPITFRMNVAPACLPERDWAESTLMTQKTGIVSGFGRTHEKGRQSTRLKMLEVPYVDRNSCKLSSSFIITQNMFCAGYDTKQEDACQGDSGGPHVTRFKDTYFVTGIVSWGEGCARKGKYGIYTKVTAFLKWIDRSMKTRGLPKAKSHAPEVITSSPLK

SMILES	Activity [1]	Activity [2]	Ki [3] [nM]	Ratio Ki [4]	Activity [5]	Ki [6] [nM]	Activity [7]	Ratio Ki [8]	Activity [9]	Ki [10] [nM]	Activity [11]	Ki [12] [nM]
COc1ccc(-c2cccc(S(=O)(=O)N[C@@H](Cc3cccc(C(=N)N)c3)C(=O)N3CCC(NC(=O)NC(C)(C)C)CC3)c2)c(OC)c1	Toxic	Active	1800	600	Active	3	Dde	0.7	Active	2		
COc1ccc(-c2cccc(S(=O)(=O)N[C@@H](Cc3cccc(C(=N)N)c3)C(=O)N3CCN(C(=O)C4CCCCC4)CC3)c2)c(OC)c1			414	10		43		2.2		95		
CC(C)(C)NC(=O)NC1CCN(C(=O)[C@H](Cc2cccc(C(=N)N)c2)NS(=O)(=O)c2cccc(-c3cc(F)c(CO)c(F)c3)c2)CC1			11800	492		24		21		504		
CC(C)(C)NC(=O)NC1CCN(C(=O)[C@H](Cc2cccc(C(=N)N)c2)NS(=O)(=O)c2cccc(-c3ccc(C(=N)N)cc3)c2)CC1			449	561		0.8		105		84		
CC(C)(C)NC(=O)NC1CCN(C(=O)[C@H](Cc2cccc(C(=N)N)c2)NS(=O)(=O)c2cccc(-c3ccc(CO)cc3)c2)CC1			12000	1090		11		5.5		60		
CC(C)(C)NC(=O)NC1CCN(C(=O)[C@H](Cc2cccc(C(=N)N)c2)NS(=O)(=O)c2cccc(-c3cccc(CO)c3)c2)CC1			490	8.3		59		0.6		33		
COCc1ccc(-c2cccc(S(=O)(=O)N[C@@H](Cc3cccc(C(=N)N)c3)C(=O)N3CCC(NC(=O)NC(C)(C)C)CC3)c2)cc1			1790	199		9		20		179		
COc1ccc(-c2cccc(S(=O)(=O)N[C@@H](Cc3cccc(C(=N)N)c3)C(=O)N3CCN(C(=O)C(C)(C)C)CC3)c2)c(OC)c1			42	0.3		143		0.8		116		
CC(C)(C)NC(=O)NC1CCN(C(=O)[C@H](Cc2cccc(C(=N)N)c2)NS(=O)(=O)c2cccc(-c3ccc(N)nc3)c2)CC1			4260	1420		3				4		
COc1ccc(-c2cccc(S(=O)(=O)N[C@@H](Cc3cccc(C(=N)N)c3)C(=O)N3CCN(C(=O)OC(C)(C)C)CC3)c2)c(OC)c1			12	0.7		17		3.1		52		
CNC(=O)NC1CCN(C(=O)[C@H](Cc2cccc(C(=N)N)c2)NS(=O)(=O)c2cccc(-c3ccc(OC)cc3OC)c2)CC1			89	3.4		26		0.9		23		
CC(C)(C)NC(=O)NC1CCN(C(=O)[C@H](Cc2cccc(C(=N)N)c2)NS(=O)(=O)c2cccc(-c3ccc(CN)cc3)c2)CC1			553	138		4		2.5		10		
Cc1ccc(-c2cccc(S(=O)(=O)N[C@@H](Cc3cccc(C(=N)N)c3)C(=O)N3CCC(NC(=O)NC(C)(C)C)CC3)c2)cc1			412	59		7		4		28		
COc1ccc(-c2cccc(S(=O)(=O)N[C@@H](Cc3cccc(C(=N)N)c3)C(=O)N3CCC(NC(=O)NC(C)C)CC3)c2)c(OC)c1			228	29		8		0.4		3		
CC(C)(C)NC(=O)NC1CCN(C(=O)[C@H](Cc2cccc(C(=N)N)c2)NS(=O)(=O)c2cccc(-c3ccc(Cl)cc3Cl)c2)CC1			174	35		5		0.8		4		
COc1ccc(-c2cccc(S(=O)(=O)N[C@@H](Cc3cccc(C(=N)N)c3)C(=O)N3CCN(C(=O)NC4CCCCC4)CC3)c2)c(OC)c1	Toxic	Active	912	24	Active	38	Dde	0.3	Active	10		
CC(C)(C)NC(=O)NC1CCN(C(=O)[C@H](Cc2cccc(C(=N)N)c2)NS(=O)(=O)c2cccc(-c3cccc(CN)c3)c2)CC1			1320	1320		1		0.1		0.1		
CC(C)Oc1ccc(-c2cccc(S(=O)(=O)N[C@@H](Cc3cccc(C(=N)N)c3)C(=O)N3CCC(NC(=O)NC(C)(C)C)CC3)c2)cc1			5140	89		58		9.3		439		
CC(C)(C)NC(=O)NC1CCN(C(=O)[C@H](Cc2cccc(C(=N)N)c2)NS(=O)(=O)c2cccc(-c3cccc(C(=N)N)c3)c2)CC1	Toxic	Active	2550	3640	Active	0.7	Dde	13	Active	9	Active	5
CC(C)(C)NC(=O)NC1CCN(C(=O)[C@H](Cc2cccc(C(=N)N)c2)NS(=O)(=O)c2cccc(-c3ccc(COC(C)(C)C)cc3)c2)CC1			2520	15		171		3.1		529		
CC(C)(C)NC(=O)NC1CCN(C(=O)[C@H](Cc2cccc(C(=N)N)c2)NS(=O)(=O)c2cccc(-c3ccc(CO)c(F)c3)c2)CC1	Toxic	Active	23000	1530	Active	15	Dde	13	Active	190		0.6
CC(C)(C)NC(=O)NC1CCN(C(=O)[C@H](Cc2cccc(C(=N)N)c2)NS(=O)(=O)c2cccc(-c3ccc(F)c(CO)c3)c2)CC1			1070	21		50		1		51		
COc1ccc(-c2cccc(S(=O)(=O)N[C@@H](Cc3cccc(C(=N)N)c3)C(=O)N3CCN(C(=O)NC(C)(C)C)CC3)c2)c(OC)c1			73	0.7		104		0.1		13		
